Structures are written as SMILES. Where two headings read alike, the source gives them in different places.

The target in one experiment is human DGKα (Homo sapiens (Human), UniProt P23743). The experiment in a line: DGKα LIPGLO assay (extruded liposome substrate). It is filed as biochemical. In a few lines: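 Human full-length DGKα, His-tagged and produced in Sf9 cells, assayed at 20 nM (4× stock) on extruded liposomes of PS, 0.25 mM DAG and 2.75 mM PC, preincubated 10 min. Reaction started with 300 μM ATP (stock) and ran 1 h in MOPS pH 7.5/MgCl2/CaCl2/DTT buffer.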
Chain of human DGKα (P23743 other isoform, or with tags, fused parts or gaps): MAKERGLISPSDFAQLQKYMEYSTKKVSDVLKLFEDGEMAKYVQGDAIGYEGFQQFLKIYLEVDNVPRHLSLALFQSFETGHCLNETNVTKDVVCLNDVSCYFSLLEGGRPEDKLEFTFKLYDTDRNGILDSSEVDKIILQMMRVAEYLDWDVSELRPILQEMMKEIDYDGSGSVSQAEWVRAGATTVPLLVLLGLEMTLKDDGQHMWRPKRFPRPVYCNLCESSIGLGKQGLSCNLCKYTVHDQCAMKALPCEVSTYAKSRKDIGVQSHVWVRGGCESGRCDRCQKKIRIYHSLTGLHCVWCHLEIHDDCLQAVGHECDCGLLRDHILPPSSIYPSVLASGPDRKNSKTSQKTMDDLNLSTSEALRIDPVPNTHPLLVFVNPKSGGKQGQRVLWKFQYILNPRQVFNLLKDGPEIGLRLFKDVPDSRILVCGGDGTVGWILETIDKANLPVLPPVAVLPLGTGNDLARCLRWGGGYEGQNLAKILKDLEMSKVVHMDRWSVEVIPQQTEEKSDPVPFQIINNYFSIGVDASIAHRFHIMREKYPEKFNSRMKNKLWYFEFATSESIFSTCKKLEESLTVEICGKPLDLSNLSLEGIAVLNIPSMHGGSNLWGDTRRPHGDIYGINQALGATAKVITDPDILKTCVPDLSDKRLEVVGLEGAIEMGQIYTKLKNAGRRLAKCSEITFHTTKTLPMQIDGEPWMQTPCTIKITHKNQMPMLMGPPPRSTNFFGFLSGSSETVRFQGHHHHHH

Experiment [1] concerns Jurkat AP1-luciferase Reporter. The experiment in a line: DGK AP1-Reporter Assay. The class given is cell-based. Put shortly:
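Jurkat cells carrying a lentiviral AP1-luciferase reporter received 30 nl compound per well for 20 min at 37 °C and 5% CO2. They were then stimulated for 6 h with anti-CD3 solution at 0.4 μg/mL; reference wells received 4 μg/mL and unstimulated wells medium only. Readout was Steady-Glo luciferase luminescence (RLU).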

Experiment [2] deals with OT-1 antigen-specific CD8+ T cells with MC38 tumor cells. The experiment is described as follows: Murine Cytotoxic T Lymphocyte Assay (IFN-γ). It is filed as cell-based, mouse.
Setting [3] is: Homo sapiens, Jurkat, read-out: DGKAP1 Lucif Reporter IC50, Table 4.
[4] abbreviates: Mus musculus, MC-38, read-out: msCTL INF-γ IC50, murine CTL IFN-γ (table title reads INF-γ Whole Blood Normalized Agonist EC50).
Setting [5] is: read-out: DGKAP1 Lucif Reporter IC50, Table 4.
Setting [6] is: Homo sapiens, Jurkat, read-out: API-Luciferase Reporter IC50, Table 3.
Where [7] appears, read: read-out: msCTL INF-γ IC50, murine CTL IFN-γ (table title reads INF-γ Whole Blood Normalized Agonist EC50).

Take `CCCCn1c(=O)c([N+](=O)[O-])c(N2CCN(C(c3ccccc3)c3ccccc3)CC2)c2ncccc21` [Example 177, 4-(4-benzhydrylpiperazin-1-yl)-1-butyl-3-nitro-1,5-naphthyridin-2(1H)-one]: the figures for the 50% inhibitory concentration (IC50) (against human DGKα; in experiment [1] (setting [3]); in experiment [2] (setting [4])) were greater than 240000 nM, 10000 nM and 10000 nM, respectively.
For `Cn1c(=O)c(C#N)c(N2CCN(C(CC(C)(C)C)c3ccc(F)cc3)CC2)c2nc(Cl)ccc21` (single isomer, unassigned) [Example 378, 6-chloro-4-{4-[1-(4-fluorophenyl)-3,3-dimethylbutyl]piperazin-1-yl}-1-methyl-2-oxo-1,2-dihydro-1,5-naphthyridine-3-carbonitrile], the values for the IC50 (on human DGKα; in experiment [1] (setting [5]); in experiment [2] (setting [4])) were 2200 nM, 10000 nM and 10000 nM, respectively.
As for `COc1cc(C#N)ccc1CN1CCN(c2c(C#N)c(=O)n(C)c3ccc(Cl)nc23)CC1` [Example 424, 6-chloro-4-{4-[(4-cyano-2-methoxyphenyl)methyl]piperazin-1-yl}-1-methyl-2-oxo-1,2-dihydro-1,5-naphthyridine-3-carbonitrile], the IC50 (commonly the midpoint of a concentration-inhibition curve) on human DGKα amounted to 1400 nM; in experiment [1] (setting [6]), 10000 nM; in experiment [2] (setting [4]), 10000 nM.
For the molecule `Cn1c(=O)c(C#N)c(N2CCN(C(c3ccc(F)cc3)C3CCC3)CC2)c2nc(Cl)ccc21` (single isomer, unassigned) [Example 383, 6-chloro-4-{4-[cyclobutyl(4-fluorophenyl)methyl]piperazin-1-yl}-1-methyl-2-oxo-1,2-dihydro-1,5-naphthyridine-3-carbonitrile], the IC50 came out at 220 nM on human DGKα, 10000 nM in experiment [1] (setting [5]) and 10000 nM in experiment [2] (setting [4]).
For the molecule `Cc1ccc2c(n1)c(N1CCN(Cc3cccc(Cl)c3O)CC1)c(C#N)c(=O)n2C` [Example 389, 4-{4-[(3-chloro-2-hydroxyphenyl)methyl]piperazin-1-yl}-1,6-dimethyl-2-oxo-1,2-dihydro-1,5-naphthyridine-3-carbonitrile], the figures for the IC50 (at human DGKα; in experiment [1] (setting [6]); in experiment [2] (setting [4])) were 1400 nM, 650 nM and 5050 nM, respectively.
Turning to `C#CCn1c(=O)c([N+](=O)[O-])c(N2CCN(C(C)c3ccc(F)cc3)CC2)c2nc(C#N)ccc21` (single isomer, unassigned) [Example 137, 8-(4-(1-(4-fluorophenyl)ethyl)piperazin-1-yl)-7-nitro-6-oxo-5-(prop-2-yn-1-yl)-5,6-dihydro-1,5-naphthyridine-2-carbonitrile], the half-maximal inhibitory concentration (IC50) on human DGKα amounted to 1500 nM; in experiment [1] (read-out: API-Luciferase Reporter IC50, Table 3), 190 nM; in experiment [2] (setting [7]), 230 nM.
As for `CC(c1ccc(F)cc1)N1CCN(c2c([N+](=O)[O-])c(=O)n(C)c3ccc(C#N)nc23)CC1` (single isomer, unassigned) [Example 44, 8-(4-(1-(4-fluorophenyl)ethyl)piperazin-1-yl)-5-methyl-7-nitro-6-oxo-5,6-dihydro-1,5-naphthyridine-2-carbonitrile], the IC50 against human DGKα is 370 nM; in experiment [1] (setting [6]), 350 nM; in experiment [2] (setting [4]) it was 130 nM.
On to `Cn1c(=O)c([N+](=O)[O-])c(N2CCN(Cc3cccc4ccccc34)CC2)c2nc(C#N)ccc21` [Example 415, 5-methyl-8-{4-[(naphthalen-1-yl)methyl]piperazin-1-yl}-7-nitro-6-oxo-5,6-dihydro-1,5-naphthyridine-2-carbonitrile], for which the 50% inhibitory concentration (IC50) against human DGKα stood at 650 nM; in experiment [1] (setting [3]), 420 nM; in experiment [2] (setting [4]), 10000 nM.
Regarding `C#CCn1c(=O)c([N+](=O)[O-])c(N2CCN(C(C)c3ccc(F)cc3)CC2)c2nc(C#N)ccc21` (single isomer, unassigned) [Example 136, 8-(4-(1-(4-fluorophenyl)ethyl)piperazin-1-yl)-7-nitro-6-oxo-5-(prop-2-yn-1-yl)-5,6-dihydro-1,5-naphthyridine-2-carbonitrile], the values for the IC50 (against human DGKα; in experiment [1] (setting [6]); in experiment [2] (setting [7])) were 790 nM, 230 nM and 90 nM, respectively.

The values are drawn from patent publication US11866430B2, “Naphthyridinone compounds useful as T cell activators” (priority 2018, dated 2024).
